Measurements taken from patent US20170165293A1, “METHOD AND APPARATUS FOR SCAVENGING PLASMA FREE HEMOGLOBIN” (GENO LLC, priority 2015, published 2017).
Read-outs that look alike come from different tables or passages of the source.

Assays:
chrondrocytes = conditions: cited from earlier work
[1] = system: polymicrobial sepsis-induced lung injury; conditions: in vivo
[2] = system: brain ischemia-reperfusion injury; conditions: acute rat model, focal ischemia-reperfusion, inhaled; cited from earlier work
LPS-induced lung injury = type: in vivo, mice
[3] = system: free water-induced intravascular hemolysis; conditions: in vivo; cited from earlier work
cell-free Hb = cell-free Hb (Homo sapiens, UniProt P68871+P69905); conditions: cited from earlier work
HIF = conditions: cited from earlier work
NO = conditions: cited from earlier work; for NO consumption ability of plasma compared to controls with infused albumin and saline: samples collected after infusion, both p<0.0001
[4] = several time points; cited from earlier work
canines = conditions: cited from earlier work; for mean SVRI compared to controls (albumin and saline) / mean MAP compared to controls (albumin and saline): 1-3 hr, after 1-hour infusion; for mean SVRI compared to controls (albumin and saline): oxyHb p<0.0001, metHb p=0.04; for mean MAP compared to controls (albumin and saline): oxyHb p<0.0001, metHb p=0.05

Sequence of cell-free Hb (P69905 2-142 limits assumed): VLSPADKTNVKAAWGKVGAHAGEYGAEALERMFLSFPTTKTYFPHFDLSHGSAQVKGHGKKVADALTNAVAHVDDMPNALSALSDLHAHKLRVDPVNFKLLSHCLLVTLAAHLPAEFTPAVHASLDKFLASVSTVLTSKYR
Sequence of cell-free Hb (P68871 2-147 limits assumed): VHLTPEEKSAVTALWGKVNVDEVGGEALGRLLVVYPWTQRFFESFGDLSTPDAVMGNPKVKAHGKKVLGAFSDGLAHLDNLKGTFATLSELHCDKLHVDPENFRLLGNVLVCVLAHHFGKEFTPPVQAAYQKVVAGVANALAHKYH

## [HH] [H2, hydrogen]
chrondrocytes
  generation of hydroxyl radicals and peroxynitrite: selectively reduce
[1]
  lung injury in polymicrobial sepsis: significantly attenuated
[2]
  brain injury: markedly suppressed
LPS-induced lung injury; H2 and/or NO treatment
  LPS-induced pulmonary early and late NF-κB activation: inhibited
  cell apoptosis: down-regulated
  pulmonary inflammation: down-regulated
LPS-induced lung injury; intratracheal LPS, 2% H2 and/or 20 ppm NO for 3 hours starting at 5 minutes or 3 hours after LPS
  lung injury: significantly improved

## nitric oxide [inhaled NO]
[3]
  MAP: no net effect
  SVRI: no net effect
  effect of sodium nitroprusside on CI during hemolysis: restored
  effect of sodium nitroprusside on SVRI during hemolysis: restored
  hypertensive effects associated with intravascular free water induced hemolysis and release of cell-free oxyHb: completely eliminates
  impairment in the ability of the kidneys to compensate for hyponatremia (serum sodium levels): attenuated
  increase in MAP caused by free water-induced intravascular hemolysis: attenuated
  increase in SVRI caused by free water-induced intravascular hemolysis: attenuated
  six-hour creatinine clearance: intermediate clearance
  systemic blood pressure: miniscule or no measurable effects
  total plasma Hb composition: predominantly methemoglobin
  vasoconstriction: prevent vasoconstriction
[1]
  lung injury in polymicrobial sepsis: significantly attenuated
LPS-induced lung injury; mouse, in vivo
  LPS-induced pulmonary early and late NF-κB activation: inhibited
  cell apoptosis: down-regulated
  lung injury: significantly improved
  pulmonary inflammation: down-regulated
cell-free Hb; animals breathing NO (n=2)
  increase in SVRI on infusion of cell-free Hb: attenuated
  increase in pulmonary vascular resistance index on infusion of cell-free Hb: attenuated
  species of the cell-free Hb: converted to methemoglobin
HIF; high doses and after 30 minutes
  effect on HIF: inhibitory
HIF; low dose, for 30 minutes, during hypoxia
  effect on HIF: stimulates

## oxyHb: cell-free oxyhemoglobin (Fe2+-O2) infused into animals
NO; among infused groups
  increase in NO consumption ability of plasma, ranking: highest
NO
  NO consumption ability of plasma compared to controls with infused albumin and saline: Elevated
[4]
  mean plasma nitrite levels compared to controls: similar
canines
  mean SVRI compared to controls (albumin and saline): significant elevations
  mean MAP compared to controls (albumin and saline): significant elevations
canines; 2 hours after the oxyHb infusion ended, same rate as during the infusion
  MAP: continued to steadily increase
canines; oxyHb infusion, from 0 to 3 hr, p<0.0001
  increase in MAP: 27%

## metHb: cell-free ferric methemoglobin (Fe3+) infused into animals
NO; p=0.009
  NO consumption by plasma relative to the infused oxyHb-containing plasma: 10 fold lower
NO
  NO consumption ability of plasma compared to controls with infused albumin and saline: Elevated
[4]
  mean plasma nitrite levels compared to controls: similar
canines
  mean SVRI compared to controls (albumin and saline): elevations
  mean MAP compared to controls (albumin and saline): elevations
canines; cell-free metHb infusions, after being reduced to oxyHb
  vascular pressures: increase
canines; in vivo
  clearance / stability in plasma compared with cell-free oxyHb: cleared faster and/or is less stable
canines; similar concentrations of Hb solutions over 1 hour, p=0.006
  increase in MAP compared to the oxyHb infusions: significantly less of an increase
canines; similar concentrations of Hb solutions over 1 hour, p=0.04
  increase in SVRI compared to the oxyHb infusions: significantly less of an increase
canines; throughout the experiment
  correlation of metHb levels converted from infused oxyHb with changes in MAP: not correlated

## cell-free Hb: cell-free hemoglobin infused with or without inhaled NO
cell-free Hb; animals breathing air (n=2)
  species of the cell-free Hb: remained predominantly oxyhemoglobin
cell-free Hb; infusion of cell-free Hb
  SVRI: increases
  pulmonary vascular resistance index: increases
